# Test results published in US20030203969A1, “Pharmaceutically active aromatic guanylhydrazones” (priority 2000, published 2003).
# pIC50: −log10 of the molar value.
# Assays:
# NNRTI-resistant HIV-1 = test: Inhibition of multiple anti-retroviral drug resistant HIV-1 strains: NNRTI-resistant; format: cell-based
# Procedure: In addition, various different “types” of multiple anti-retroviral drug resistant HIV-1 strains were also tested: […]
# EBV = EBV replication in TPA-induced P3HR-1 cells (TaqMan PCR); format: cell-based, Epstein-Barr virus
# Procedure: Human P3HR-1 cells are latently infected with EBV. Culturing these cells in the presence of phorbol ester induces a lytic infection cycle, resulting in stimulation of viral replication within the cells. Compound efficacy in this assay is determined using TaqMan PCR technology, and compound toxicity is measured by addition of Promega's Cell Titer Aqueous One Solution (metabolic dye).
# 1. P3HR-1 cells are counted by the trypan blue dye exclusion method, and the cell count/ml is determined. Cells are pelleted by centrifugation and washed once with PBS to minimize the basal level of virus released from untreated cells which spontaneously enter the lytic cycle and release virus.
# 2. Cells are resuspended in fresh media and adjusted to the appropriate cell density. Cells are then plated in the interior wells of 96-well round-bottom microtiter plates in a volume of 50 μl per well.
# 3. The phorbol ester TPA is added to appropriate wells in a volume of 50 μl per well to yield a final concentration of 15 ng/ml. Medium is added in place of TPA in three wells to serve as a negative control.
# 4. […]
# 5. A standard curve prepared from known copy numbers of DNA isolated from P3HR-1 cells and amplified is run with each plate in order to quantitate the DNA copy number in each original sample. The efficacy of the compound is determined by comparing DNA copy numbers from test wells with those of control wells.
# [1] = target: T1, deoxyhypusine synthase (DHS) (Homo sapiens, UniProt P49366); test: In vitro DHS screening assay (hypusine formation on eIF-5A); format: biochemical
# T1 construct: made in house; host or cells: E. coli BL21 (DE3), pGex vector
# T1 sequence (P49366 1-369): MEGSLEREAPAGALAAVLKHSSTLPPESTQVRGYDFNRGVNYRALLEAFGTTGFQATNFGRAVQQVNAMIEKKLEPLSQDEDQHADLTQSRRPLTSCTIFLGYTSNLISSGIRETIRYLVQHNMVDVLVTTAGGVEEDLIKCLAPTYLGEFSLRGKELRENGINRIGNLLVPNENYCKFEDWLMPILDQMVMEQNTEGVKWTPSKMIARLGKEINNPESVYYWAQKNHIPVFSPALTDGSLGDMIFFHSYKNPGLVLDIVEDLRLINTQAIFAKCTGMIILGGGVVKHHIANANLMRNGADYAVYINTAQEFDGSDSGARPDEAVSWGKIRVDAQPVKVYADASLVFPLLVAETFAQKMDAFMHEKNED
structure (smiles),measurement,setting,value
"CC(=NNC(=N)N)c1cc(NC(=O)CCCCCCCCC(=O)Nc2cc(C(C)=NNC(=N)N)cc(C(C)=NNC(=N)N)c2)cc(C(C)=NNC(=N)N)c1 [Compound 4, N,N′-bis (3,5-diacetylphenyl) decane diamide tetrakis (amidinohydrazone)]",[%] inhibition of virus replication,"NNRTI-resistant HIV-1; NNRTI-resistant HIV-1, 0.5 μM",71%
same,[%] inhibition of virus replication,"NNRTI-resistant HIV-1; NNRTI-resistant HIV-1, 1.0 μM",82%
same,Comments,"EBV; EBV, P3HR1 cells",Significant Activity
same,pIC50,"EBV; EBV-infected P3HR1 cells, day 4",5.64
same,inhibition of the hypusine formation on the elF-5A protein,[1],potent inhibitors
